Experimental data: BindingDB's records for doi:10.1002/(SICI)1098-2396(199702)25:2 (University of Toronto, 1997)

Biological target: D(2) dopamine receptor (Mus musculus, UniProt P61168)
Sequence (P61168 whole entry): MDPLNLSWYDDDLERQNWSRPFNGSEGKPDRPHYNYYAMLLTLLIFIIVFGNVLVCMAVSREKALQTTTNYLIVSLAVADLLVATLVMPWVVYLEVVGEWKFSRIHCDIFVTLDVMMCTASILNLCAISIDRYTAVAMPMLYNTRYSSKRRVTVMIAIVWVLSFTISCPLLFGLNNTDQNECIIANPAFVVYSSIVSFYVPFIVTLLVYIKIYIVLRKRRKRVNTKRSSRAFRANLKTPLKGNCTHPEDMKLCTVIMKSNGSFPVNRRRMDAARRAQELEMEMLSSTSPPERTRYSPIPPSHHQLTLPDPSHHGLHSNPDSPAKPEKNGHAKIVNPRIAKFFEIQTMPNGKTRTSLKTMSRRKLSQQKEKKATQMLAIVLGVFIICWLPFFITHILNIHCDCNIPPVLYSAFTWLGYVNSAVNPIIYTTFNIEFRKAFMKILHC

Structure (SMILES): CCN1CCC[C@@H]1CNC(=O)c1cc(S(N)(=O)=O)ccc1OC [Sulpiride-R]
- Ki: 1.06 µM

Structure (SMILES): CCN1CCC[C@H]1CNC(=O)c1cc(S(N)(=O)=O)ccc1OC [Sulpiride-S]
- Ki: 1.47 µM
